Experimental data taken from PMC7242238 (Clinical Drug Investigation, 2020).
Like-named read-outs stand apart in the source and are kept apart here.

Tests used:
[1] = format: in vivo, human
[2] = system: healthy subjects; assay: CYP3A inhibitors study Cohort 1: safety assessments; format: in vivo, human; conditions: of 14 subjects, by treatment period
[3] = format: in vivo, human; conditions: for CL/F / AUC(0-inf) / AUC(0-t) / half-life / k el: Cohort 1: naldemedine 0.2 mg alone or with itraconazole 200 mg, n = 14; for AUC(0-inf): AUC0–inf; for AUC(0-t): AUC0–last; for half-life: t1/2,z; for k el: λz
[4] = system: healthy subjects; assay: CYP3A inhibitors study Cohort 2: safety assessments; format: in vivo, human; conditions: of 14 subjects, by treatment period
[5] = system: healthy subjects; assay: P-gp inhibitor study: safety assessments; format: in vivo, human; conditions: of 13 subjects
[6] = system: spontaneous bowel movements; conditions: cited from earlier work
[7] = system: healthy subjects; assay: CYP3A inducer study: safety assessments; conditions: of 14 subjects; by treatment period
[8] = CYP3A inducer study: pharmacokinetics of naldemedine alone or with rifampin; format: in vivo, human; conditions: for AUC(0-inf): AUC0–inf; for AUC(0-t): AUC0–last; for half-life: t1/2,z; for k el: λz
[9] = system: healthy subjects; conditions: cited from earlier work
[10] = format: in vivo, human; conditions: for CL/F / AUC(0-inf) / AUC(0-t) / half-life / k el: Cohort 2: naldemedine 0.2 mg alone or with fluconazole 200 mg, n = 14; for AUC(0-inf): AUC0–inf; for AUC(0-t): AUC0–last; for half-life: t1/2,z; for k el: λz
[11] = 12 healthy male subjects; single oral 2-mg doses of 14C-naldemedine; cited from earlier work
[12] = coadministration of cyclosporine 600 mg vs naldemedine 0.4 mg alone
[13] = male, human, plasma, oral, 0.4 mg
[14] = male, human, plasma, po, 0.4 mg
[15] = coadministration of itraconazole vs naldemedine 0.2 mg alone
[16] = human, plasma, oral, 0.2 mg, geometric mean (CV %)
[17] = human, plasma, oral, 0.2 mg, mean (SD)
[18] = coadministration of rifampin 600 mg QD vs naldemedine 0.2 mg alone
[19] = human, plasma, oral, 0.2 mg, naldemedine 0.2 mg alone or with rifampin 600 mg QD, n = 14, geometric mean (CV %)
[20] = human, plasma, oral, 0.2 mg, naldemedine 0.2 mg alone or with rifampin 600 mg QD, n = 14, mean (SD)
[21] = coadministration of fluconazole vs naldemedine 0.2 mg alone

CC(C)(NC(=O)C1=C(O)[C@@H]2Oc3c(O)ccc4c3[C@@]23CCN(CC2CC2)[C@H](C4)[C@]3(O)C1)c1nc(-c2ccccc2)no1 [Naldemedine]
effect of coadministration on median naldemedine Tmax ([1]; coadministration of cyclosporine): not notably affected
increase of naldemedine AUC0–inf [1, 12]: 1.78 fold
increase of naldemedine AUC0–last [1, 12]: 1.79 fold
increase of naldemedine Cmax [1, 12]: 1.45 fold
AUC(0-inf) [1, 13]: 38.9 ng·h/mL
AUC(0-t) [1, 13]: 38.6 ng·h/mL
Cmax [1, 13]: 4.86 ng/mL
half-life [1, 13]: 10.6 h
k el [1, 13]: 1.81e-05 s⁻¹
AUC(0-inf) [1, 14]: 39.5 ng·h/mL
AUC(0-t) [1, 14]: 39.1 ng·h/mL
Cmax [1, 14]: 4.9 ng/mL
Tmax [1, 14]: 0.75 h
half-life [1, 14]: 10.7 h
k el [1, 14]: 1.82e-05 s⁻¹
CL/F ([1]; naldemedine 0.4 mg alone or with cyclosporine 600 mg, n = 13, geometric mean (CV %)): 10.3 (17.3) L/h
subjects with TEAEs [2]: 7.1%
CL/F ([3]; geometric mean (CV %)): 7.41 (37.7) L/h
CL/F ([3]; mean (SD)): 8.03 (4.39) L/h
effect of coadministration on median naldemedine Tmax ([3]; coadministration of itraconazole): not notably affected
increase of naldemedine AUC0–inf [3, 15]: 2.91 fold
increase of naldemedine AUC0–last [3, 15]: 2.65 fold
increase of naldemedine Cmax [3, 15]: 1.12 fold
Cmax ([3]; human, plasma, oral, 0.2 mg): 3.56 ng/mL
Tmax ([3]; human, plasma, oral, 0.2 mg): 0.75 h
AUC(0-inf) [3, 16]: 27 ng·h/mL
AUC(0-inf) [3, 17]: 28.3 ng·h/mL
AUC(0-t) [3, 16]: 26.7 ng·h/mL
AUC(0-t) [3, 17]: 28.1 ng·h/mL
half-life [3, 16]: 10.4 h
half-life [3, 17]: 10.7 h
k el [3, 16]: 1.85e-05 s⁻¹
k el [3, 17]: 1.9e-05 s⁻¹
Cmax ([3]; human, plasma, po, 0.2 mg): 3.77 ng/mL
subjects with TEAEs [4]: 7.1%
subjects with TEAEs ([5]; naldemedine 0.4 mg alone or plus cyclosporine 600 mg): 7.7%
subjects with headache (TEAE) [5]: 7.7%
clinical benefit compared with placebo ([6]; naldemedine 0.1 mg): no significant differences
clinical benefit (spontaneous bowel movements) compared with placebo ([6]; naldemedine 0.2- and 0.4-mg doses): significant clinical benefits
subjects with TEAEs [7]: no TEAEs
effect of coadministration on median naldemedine Tmax ([8]; coadministration of rifampin): not notably affected
decrease of naldemedine AUC0–last [8, 18]: 83%
decrease of naldemedine Cmax [8, 18]: 38%
Cmax ([8]; human, plasma, oral, 0.2 mg): 2.72 ng/mL
Tmax ([8]; human, plasma, oral, 0.2 mg): 1 h
AUC(0-inf) [8, 19]: 21.8 ng·h/mL
AUC(0-inf) [8, 20]: 22.1 ng·h/mL
AUC(0-t) [8, 19]: 21.5 ng·h/mL
AUC(0-t) [8, 20]: 21.8 ng·h/mL
half-life [8, 19]: 11.7 h
half-life [8, 20]: 11.9 h
k el [8, 19]: 1.64e-05 s⁻¹
k el [8, 20]: 1.67e-05 s⁻¹
Cmax ([8]; human, plasma, po, 0.2 mg): 2.8 ng/mL
CL/F ([8]; naldemedine 0.2 mg alone or with rifampin 600 mg QD, n = 14, geometric mean (CV %)): 9.19 (19.2) L/h
CL/F ([8]; naldemedine 0.2 mg alone or with rifampin 600 mg QD, n = 14, mean (SD)): 9.35 (1.86) L/h
Tmax ([8]; naldemedine 0.2 mg alone or with rifampin 600 mg QD, n = 14, median (range)): 1.00 (0.50, 2.50) h
dose linearity of pharmacokinetics ([9]; dose range of 0.2–0.4 mg): linear pharmacokinetics
safety and tolerability ([9]; naldemedine doses of 0.1 to 100 mg, healthy subjects): safe and well tolerated
CL/F ([10]; geometric mean (CV %)): 7.36 (16.5) L/h
CL/F ([10]; mean (SD)): 7.45 (1.16) L/h
effect of coadministration on median naldemedine Tmax ([10]; coadministration of fluconazole): not notably affected
increase of naldemedine AUC0–inf [10, 21]: 1.90 fold
increase of naldemedine AUC0–last [10, 21]: 1.88 fold
increase of naldemedine Cmax [10, 21]: 1.38 fold
Cmax ([10]; human, plasma, oral, 0.2 mg): 3.48 ng/mL
Tmax ([10]; human, plasma, oral, 0.2 mg): 1 h
AUC(0-inf) [10, 16]: 27.2 ng·h/mL
AUC(0-inf) [10, 17]: 27.5 ng·h/mL
AUC(0-t) [10, 16]: 26.9 ng·h/mL
AUC(0-t) [10, 17]: 27.3 ng·h/mL
half-life [10, 16]: 10.1 h
half-life [10, 17]: 10.4 h
k el [10, 16]: 1.9e-05 s⁻¹
k el [10, 17]: 1.95e-05 s⁻¹
Cmax ([10]; human, plasma, po, 0.2 mg): 3.57 ng/mL

CCC(C)n1ncn(-c2ccc(N3CCN(c4ccc(OCC5COC(Cn6cncn6)(c6ccc(Cl)cc6Cl)O5)cc4)CC3)cc2)c1=O (stereo not drawn) [itraconazole, reference compound]
subjects with TEAEs [2]: 14.3%

CC(C)(NC(=O)C1=C(O)[C@@H]2Oc3c(O)ccc4c3[C@@]23CCN[C@H](C4)[C@]3(O)C1)c1nc(-c2ccccc2)no1 [nor-naldemedine]
share of the systemic exposure of unchanged naldemedine [11]: 9–13%
